# Data published in patent US8551984B2, “Aminopyrimidines as SYK inhibitors” (Merck Sharp & Dohme Corp., priority 2009, dated 2013).
# Target: recombinant human SYK (GST-hSYK fusion protein) (Homo sapiens, UniProt P43405)
# Test: biochemical
# Details: rhSYK Activity (IC50), recombinant human GST-SYK 5 pM, ATP 25 μM, biotinylated substrate peptide 250 nM, HTRF, 10-dose titration
# Excerpt: Homogeneous Time-Resolved Fluorescence (HTRF) Assay for the Recombinant Human SYK Enzyme:
row,Structure (SMILES),IC50 [nM]
1,"Cc1cc(Nc2nccc(C(F)(F)F)n2)cc(-c2cnc(C3(C#N)CCCCC3)s2)c1 [Example 128, 1-[5-(3-methyl-5-{[4-(trifluoromethyl)pyrimidin-2-yl]amino}phenyl)-1,3-thiazol-2-yl]cyclohexanecarbonitrile]",100 to 1000
2,Cc1cc(Nc2nccc(C(F)(F)F)n2)cc(-c2cnc(C3CCCCC3)s2)c1 [Example 130],100 to 1000
3,"Cc1cc(Nc2nccc(C(F)(F)F)n2)cc(-c2cnc(C3(F)CCSCC3)s2)c1 [Example 132, N-{3-[2-(4-fluorotetrahydro-2H-thiopyran-4-yl)-1,3-thiazol-5-yl]-5-methylphenyl}-4-(trifluoromethyl)pyrimidin-2-amine]",100 to 1000
4,"Cc1cc(Nc2nccc(C(F)(F)F)n2)cc(-c2cnc(C34CCC(C(=O)O3)C(C)(C)C4)s2)c1 (stereo not drawn) [Example 139, Cis-5,5-dimethyl-1-[5-(3-methyl-5-{[4-(trifluoromethyl)pyrimidin-2-yl]amino}phenyl)-1,3-thiazol-2-yl]-2-oxabicyclo[2.2.2]octan-3-one]",100 to 1000
5,"Cc1cc(Nc2nccc(C(F)(F)F)n2)cc(-c2cnc(C3(O)CCC(O)C4(CC4)C3)s2)c1 (stereo not drawn) [Example 143(A), 7-[5-(3-methyl-5-{[4-(trifluoromethyl)pyrimidin-2-yl]amino}phenyl)-1,3-thiazol-2-yl]spiro[2.5]octane-4,7-diol]",< 100
6,"Cc1cc(Nc2nccc(C(F)(F)F)n2)cc(-c2cnc(C3(O)CC4(CC4)C(O)C4(CC4)C3)s2)c1 (stereo not drawn) [Example 143(B), 9-[5-(3-methyl-5-{[4-(trifluoromethyl)pyrimidin-2-yl]amino}phenyl)-1,3-thiazol-2-yl]dispiro[2.1.2.3]decane-4,9-diol]",< 100
7,"Cc1cc(Nc2nccc(C(F)(F)F)n2)cc(-c2cnc(C3CCCCNC3=O)s2)c1 (stereo not drawn) [Example 144, 3-[5-(3-methyl-5-{[4-(trifluoromethyl)pyrimidin-2-yl]amino}phenyl)-1,3-thiazol-2-yl]azepan-2-one]",< 100
8,Cc1cc(Nc2nccc(C(F)(F)F)n2)cc(-c2cnc(/C=C/c3ccc(C(=O)O)cc3)s2)c1 [Example 147],< 100
9,"Cc1cc(Nc2nccc(C(F)(F)F)n2)cc(-c2cnc(CCc3ccc(C(=O)O)cc3)s2)c1 [Example 148, 4-{2-[5-(3-methyl-5-{[4-(trifluoromethyl)pyrimidin-2-yl]amino}phenyl)-1,3-thiazol-2-yl]ethyl}benzoic acid]",< 100
10,"Cc1cc(Nc2nccc(C(F)(F)F)n2)cc(-c2cnc(C(C)(O)c3ccc(C(=O)O)nc3)s2)c1 (stereo not drawn) [Example 149, 5-{1-Hydroxy-1-[5-(3-methyl-5-{[4-(trifluoromethyl)pyrimidin-2-yl]amino}phenyl)-1,3-thiazol-2-yl]ethyl}pyridine-2-carboxylic acid]",< 100
11,"Cc1cc(Nc2nccc(C(F)(F)F)n2)cc(-c2cnc(C(C)(O)c3ccc(C(=O)O)cn3)s2)c1 (stereo not drawn) [Example 150, 6-{1-Hydroxy-1-[5-(3-methyl-5-{[4-(trifluoromethyl)pyrimidin-2-yl]amino}phenyl)-1,3-thiazol-2-yl]ethyl}pyridine-3-carboxylic acid]",< 100
12,"Cc1cc(Nc2nccc(C)n2)cc(-c2cnc([C@@]3(O)CC[C@H](C(=O)O)C(C)(C)C3)s2)c1 [Example 152, (1S,4R)-4-Hydroxy-2,2-dimethyl-4-{5-[3-methyl-5-(4-methyl-pyrimidin-2-ylamino)-phenyl]-1,3-thiazol-2-yl}-cyclohexanecarboxylic acid]",< 100
13,"CCOP(=O)(OCC)[C@]1(O)CC[C@@](O)(c2ncc(-c3cc(C)cc(Nc4nccc(C(F)(F)F)n4)c3)s2)CC1 [Example 155(A), Diethyl{cis-1,4-dihydroxy-4-[5-(3-methyl-5-{[4-(trifluoromethyl)pyrimidin-2-yl]amino}phenyl)-1,3-thiazol-2-yl]cyclohexyl}phosphonate]",< 100
14,"Cc1cc(Nc2nccc(C(F)(F)F)n2)cc(-c2cnc(C3(O)CCC/C(=N\O)C3(C)C)s2)c1 (stereo not drawn) [Example 156, (3E)-3-(Hydroxyimino)-2,2-dimethyl-1-[5-(3-methyl-5-{[4-(trifluoromethyl)pyrimidin-2-yl]amino}phenyl)-1,3-thiazol-2-yl]cyclohexanol]",< 100
15,"Cc1cc(Nc2nccc(-c3cnn(CC(C)(C)O)c3)n2)cc(-c2cnc(C3(O)CCC3)s2)c1 [Example 157, 1-{5-[3-({4-[1-(2-hydroxy-2-methylpropyl)-1H-pyrazol-4-yl]pyrimidin-2-yl}amino)-5-methylphenyl]-1,3-thiazol-2-yl}cyclobutanol]",< 100
16,"Cc1cc(Nc2nccc(OCCO)n2)cc(-c2cnc(C(O)(CO)CO)s2)c1 [Example 158, 2-[5-(3-{[4-(2-hydroxyethoxy)pyrimidin-2-yl]amino}-5-methylphenyl)-1,3-thiazol-2-yl]propane-1,2,3-triol]",< 100

# More lines, now with the values ahead:
row,IC50 [nM],Structure (SMILES)
1,< 100,"Cc1cc(Nc2nccc(C(F)(F)F)n2)cc(-c2cnc(C3(OCCO)CCNC(=O)CC3)s2)c1 (stereo not drawn) [Example 127, 5-(2-hydroxyethoxy)-5-[5-(3-methyl-5-{[4-(trifluoromethyl)pyrimidin-2-yl]amino}phenyl)-1,3-thiazol-2-yl]azepan-2-one]"
2,< 100,"Cc1cc(Nc2nccc(C(F)(F)F)n2)cc(-c2cnc(C3(C(N)=O)CCCCC3)s2)c1 [Example 129, 1-[5-(3-methyl-5-{[4-(trifluoromethyl)pyrimidin-2-yl]amino}phenyl)-1,3-thiazol-2-yl]cyclohexanecarboxamide]"
3,< 100,"Cc1cc(Nc2nccc(C(F)(F)F)n2)cc(-c2cnc(C(C)(O)c3ccc(S(C)(=O)=O)cc3)s2)c1 (stereo not drawn) [Example 131, 1-[4-(methylsulfonyl)phenyl]-1-[5-(3-methyl-5-{[4-(trifluoromethyl)pyrimidin-2-yl]amino}phenyl)-1,3-thiazol-2-yl]ethanol]"
4,< 100,"Cc1cc(Nc2nccc(C(F)(F)F)n2)cc(-c2cnc(C3=CCSCC3)s2)c1 [Example 133, N-{3-[2-(3,6-dihydro-2H-thiopyran-4-yl)-1,3-thiazol-5-yl]-5-methylphenyl}-4-(trifluoromethyl)pyrimidin-2-amine]"
5,< 100,"Cc1cc(Nc2nccc(C(F)(F)F)n2)cc(-c2cnc(C3(F)CCS(=O)(=O)CC3)s2)c1 [Example 134, N-{3-[2-(4-fluoro-1,1-dioxidotetrahydro-2H-thiopyran-4-yl)-1,3-thiazol-5-yl]-5-methylphenyl}-4-(trifluoromethyl)pyrimidin-2-amine]"
6,< 100,"Cc1cc(Nc2nccc(C(F)(F)F)n2)cc(-c2cnc(C3=CCS(=O)(=O)CC3)s2)c1 [Example 135, N-{3-[2-(1,1-dioxido-3,6-dihydro-2H-thiopyran-4-yl)-1,3-thiazol-5-yl]-5-methylphenyl}-4-(trifluoromethyl)pyrimidin-2-amine]"
7,< 100,"Cc1cc(Nc2nccc(C(F)(F)F)n2)cc(-c2cnc(C3CCSCC3)s2)c1 [Example 136, N-{3-methyl-5-[2-(tetrahydro-2H-thiopyran-4-yl)-1,3-thiazol-5-yl]phenyl}-4-(trifluoromethyl)pyrimidin-2-amine]"
8,< 100,"Cc1cc(Nc2nccc(C(F)(F)F)n2)cc(-c2cnc(C3CCS(=O)(=O)CC3)s2)c1 [Example 137, N-{3-[2-(1,1-dioxidotetrahydro-2H-thiopyran-4-yl)-1,3-thiazol-5-yl]-5-methylphenyl}-4-(trifluoromethyl)pyrimidin-2-amine]"
